The values that follow are results of earlier work, collected in US6436417B1, “Acne treatment compositions” (Blistex Inc., priority 2001, dated 2002).

The conditions of data set [1]: in sunlight and in the presence of ferric salts.
Assay in data set [2]: not given
This is another data set of the same source.

SMILES strings stand for the structures.

With `O=C(O)c1ccccc1O` [Salicylic acid, salicylic acid], the “solubility in alcohol (volume of alcohol dissolving 1 gram)” value is “about 2.7 ml”. Moreover, in data set [1], the stability to discoloration result is reported as “strong tendency to discolor”. The “pH of the aqueous solution” value in data set [2] (1 gram in about 460 ml of water at room temperature) is given as 2.4. For the same compound, the “solubility in water (volume of water dissolving 1 gram)” value in data set [2] (1 gram, water, room temperature) is listed as “about 460 ml”. For the same compound, in data set [2] (water, room temperature), the solubility in water entry is listed as “about 0.2 % by weight”.
